Reference: ChEMBL document CHEMBL3870357, “2-Hydroxypyridine-N-oxide-Embedded Aurones as Potent Human Tyrosinase Inhibitors” (ACS Med Chem Lett, 2017)

Assays:
[1] = Cytotoxicity against human MNT1 cells
Tyrosinase [2] = biological target: T1, Tyrosinase (Homo sapiens, UniProt P14679); test: Inhibition of tyrosinase in human MNT1 cells assessed as suppression of melanin biosynthesis measured after 96 hrs; type: cell-based
T1 sequence (P14679 whole entry): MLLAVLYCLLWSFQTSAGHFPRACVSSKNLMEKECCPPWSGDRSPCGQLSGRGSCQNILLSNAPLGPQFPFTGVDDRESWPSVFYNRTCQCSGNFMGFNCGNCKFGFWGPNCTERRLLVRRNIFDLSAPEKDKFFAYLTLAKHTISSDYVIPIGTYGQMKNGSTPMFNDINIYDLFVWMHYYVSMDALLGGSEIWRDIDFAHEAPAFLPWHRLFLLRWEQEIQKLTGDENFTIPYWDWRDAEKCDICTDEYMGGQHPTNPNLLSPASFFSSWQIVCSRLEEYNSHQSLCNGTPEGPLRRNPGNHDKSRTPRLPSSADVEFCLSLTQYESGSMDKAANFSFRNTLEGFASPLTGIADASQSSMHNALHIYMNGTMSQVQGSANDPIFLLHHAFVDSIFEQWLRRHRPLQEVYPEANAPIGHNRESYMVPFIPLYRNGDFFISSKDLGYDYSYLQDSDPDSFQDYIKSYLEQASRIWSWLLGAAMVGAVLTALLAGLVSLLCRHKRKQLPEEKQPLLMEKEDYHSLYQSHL

Tyrosinase [3] = biological target: T1, Tyrosinase; test: Inhibition of tyrosinase in human MNT1 cell lysate pretreated prior to addition of L-DOPA as substrate measured after 3 hrs; type: cell-based
[4] = biological target: T2, Tyrosinase (Homo sapiens) (UniProt P14679); details: Sf9
T2 sequence (whole entry): T1 sequence (P14679 whole entry)

Tyrosinase [5] = biological target: T1, Tyrosinase; test: Inhibition of recombinant human tyrosinase expressed in baculovirus infected Sf9 cells assessed as diphenolase activity using L-DOPA as substrate by UV-vis spectrophotometry
[6] = Inhibition of mushroom TyM1 preincubated for 5 mins followed by addition of L-DOPA as substrate measured for 5 mins by spectroscopic method; set-up: species or system Agaricus bisporus

IC50 (Tyrosinase [2]) | IC50 (Tyrosinase [3]) | Kic [4] | Ki (Tyrosinase [5]) | IC50 [6] | SMILES | IC50 [1]
120 µM | 30 µM | 1.02 µM | – | – | O=C1/C(=C/c2ccc(=O)n(O)c2)Oc2cccc(O)c21 | 80 µM
85.3 µM | 16.6 µM | – | 0.35 µM | 1.5 µM | O=C1/C(=C/c2ccc(=O)n(O)c2)Oc2cc(O)ccc21 | > 500 µM
119 µM | 34 µM | 1.2 µM | – | – | O=C1/C(=C/c2ccc(=O)n(O)c2)Oc2cc(O)cc(O)c21 | > 500 µM

More lines, now with the values behind:

SMILES | IC50 (Tyrosinase [2]) | IC50 (Tyrosinase [3]) | Kic [4] | Ki (Tyrosinase [5]) | IC50 [6] | IC50 [1]
O=C1/C(=C/c2ccc(O)cc2O)Oc2cc(O)cc(O)c21 | – | – | – | – | 300 µM | –
O=c1cc(CO)occ1O [KOJIC ACID] | – | – | – | – | – | > 80000 µM
O=C1/C(=C/c2ccc(O)cc2O)Oc2cccc(O)c21 | – | – | – | – | 9 µM | –
O=C1/C(=C/c2ccc(O)cc2O)Oc2cc(O)ccc21 | – | – | – | – | > 1000 µM | –
